Values after ≈ are worked out from the molar mass of the structure shown.
Tests used:
in vitro = conditions: rat/mouse hybrid
Protocol: To evaluate the anti-apoptotic effect of solubilized UDCA against GSNO on wild type cells and cells containing G93A and A4V mutations in hSOD1, wildtype cells, G93A cells, and A4V cells were incubated with 500 μM GSNO for 24 h in order to induce apoptosis and then cell viability of was determined. These apoptosis-induced wildtype cells, G93A cells, and A4V cells were next incubated with 20 μM of solubilized UDCA for 24 h and cell viability was determined again using both the MTT assay and Trypan blue staining.
Cell culture: VSC 4.1. […]
MTT assay and trypan blue staining to evaluate the anti-apoptotic effects of solubilized UDCA and its results; 3-(4,5-dimethylthiazol-2-yl)-2,5-diphenyltetrazolium bromide (MTT) is absorbed into cells and converted to formazan by the action of mitochondrial succinate dehydrogenase. […] Finally, optical density (OD) was read at 540 nm on the ELISA plate reader after particles in the well were dissolved by a microplate mixer for 10 min. Results were calibrated using OD measured without cell culture. […] Unstained live cells were counted on a haemocytometer. Cell viability was expressed as percentages of the cell survival.

[1] = system: wild type cells (VSC 4.1, wild type human Cu/Zn SOD-1); assay: DAPI staining to evaluate apoptosis by GSNO; type: cell-based; conditions: 500 μM GSNO, 24 h
Protocol: (§1) DAPI staining to evaluate apoptosis by GSNO and its results; 4′,6-Diamidino-2-phenylindole dihydrochloride (DAPI) staining was performed to evaluate apoptosis as follows. After differentiation, the wildtype (control), G93A, and A4V cells were incubated with without 500 μM GSNO for 24 h; the cells were then centrifuged at 265 g for 2 min, and 4% neutral buffered formalin (100 μL) was added to the cell pellet. A 50 μL aliquot of the cell suspension was applied to a glass slide and dried at room temperature. The fixed cells were washed in PBS, air dried, and stained for 20 min with the DNA-specific fluorochrome, DAPI (Sigma, Saint Louis, Mo., USA). The adhered cells were rinsed with PBS, air dried, and mounted with 90% glycerol. The slides were observed under Olympus fluorescence microscopy(pictures).

[2] = system: G93A cells (VSC 4.1, mutant human Cu/Zn SOD-1); assay: DAPI staining to evaluate apoptosis by GSNO; type: cell-based; conditions: 500 μM GSNO, 24 h
Protocol: as §1

[3] = system: A4V cells (VSC 4.1, mutant human Cu/Zn SOD-1); assay: DAPI staining to evaluate apoptosis by GSNO; type: cell-based; conditions: 500 μM GSNO, 24 h
Protocol: as §1

[4] = protonated form; cited from earlier work
[5] = oral administration; cited from earlier work

| SMILES | viability at 24 h, 500 μM (in vitro) [%] | percent of apoptotic cells [1] [%] | percent of apoptotic cells [2] [%] | percent of apoptotic cells [3] [%] | solubility [4] | fraction of an ingested dose absorbed in the colon [5] [%] |
| --- | --- | --- | --- | --- | --- | --- |
| N[C@@H](CCC(=O)N[C@@H](CSN=O)C(=O)NCC(=O)O)C(=O)O [GSNO, S-nitrosoglutathione] | 81 | 8 | 19 | 25 | – | – |
| C[C@H](CCC(=O)NCCS(=O)(=O)O)[C@H]1CC[C@H]2[C@@H]3[C@@H](O)C[C@@H]4C[C@H](O)CC[C@]4(C)[C@H]3CC[C@]12C [TUDCA, tauroursodeoxycholic acid] | – | – | – | – | 450 µM (≈ 225 µg/mL) | – |
| C[C@H](CCC(=O)O)[C@H]1CC[C@H]2[C@@H]3[C@@H](O)C[C@@H]4C[C@H](O)CC[C@]4(C)[C@H]3CC[C@]12C [UDCA, Ursodeoxycholic acid] | – | – | – | – | about 0.05 mM | 20 |
